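96-well plates; 48 h exposure; 5 concentrations. Endpoints by linear interpolation between flanking doses. Not reached: highest tested concentration assigned. Abbreviation: GI50, concentration required for 50% inhibition of growth.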 The source made the active and inactive calls. Cut-off read from the data, not from the text of the source: active = GI50 up to about 1.1 µM and inactive = higher.
What was measured:
Assay in all cases: NCI tumour cell line growth inhibition, 48 h
786-0 = test system: 786-0
A549 = test system: A549
ACHN = test system: ACHN
BT-549 = test system: BT-549
CAKI-1 = test system: CAKI-1
CCRF-CEM = test system: CCRF-CEM
COLO 205 = test system: COLO 205
DU-145 = test system: DU-145
EKVX = test system: EKVX
HCT-116 = test system: HCT-116
HCT-15 = test system: HCT-15
HL-60 = test system: HL-60
HOP-62 = test system: HOP-62
HOP-92 = test system: HOP-92
HT-29 = test system: HT-29
Hs-578T = test system: Hs-578T
IGROV-1 = test system: IGROV-1
K562 = test system: K562
KM12 = test system: KM12
LOX IMVI = test system: LOX IMVI
M14 = test system: M14
MCF7 = test system: MCF7
MDA-MB-435 = test system: MDA-MB-435
MDA-N = test system: MDA-N
MOLT-4 = test system: MOLT-4
Malme-3M = test system: Malme-3M
NCI-H226 = test system: NCI-H226
NCI-H23 = test system: NCI-H23
NCI-H460 = test system: NCI-H460
NCI-H522 = test system: NCI-H522
NCI/ADR-RES = test system: NCI/ADR-RES
OVCAR-3 = test system: OVCAR-3
OVCAR-4 = test system: OVCAR-4
OVCAR-5 = test system: OVCAR-5
OVCAR-8 = test system: OVCAR-8
PC-3 = test system: PC-3
RPMI-8226 = test system: RPMI-8226
SF-268 = test system: SF-268
SF-295 = test system: SF-295
SK-MEL-28 = test system: SK-MEL-28
SK-MEL-2 = test system: SK-MEL-2
SK-MEL-5 = test system: SK-MEL-5
SK-OV-3 = test system: SK-OV-3
SN12C = test system: SN12C
SNB-19 = test system: SNB-19
SNB-75 = test system: SNB-75
SR = test system: SR
SW-620 = test system: SW-620
T47D = test system: T47D
TK-10 = test system: TK-10
U-251 = test system: U-251
UACC-257 = test system: UACC-257
UACC-62 = test system: UACC-62
UO-31 = test system: UO-31
HCC 2998 = test system: HCC 2998
RXF 393 = test system: RXF 393
SF-539 = test system: SF-539
MDA-MB-231 = test system: MDA-MB-231

Question: CC1(C)/C(=N\Nc2ccc([N+](=O)[O-])cc2[N+](=O)[O-])C2CCC1C2 (stereo unspecified) was tested. Which GI50 (786-0) did it give?
Answer: 81.8 µM (inactive)

Question: What about the GI50 (A549) of the same compound?
Answer: > 100 µM (inactive)

Question: What about the GI50 (ACHN) of the same compound?
Answer: 54 µM (inactive)

Question: And the GI50 (BT-549)?
Answer: > 100 µM (inactive)

Question: What about the GI50 (CAKI-1) of the same compound?
Answer: > 100 µM (inactive)

Question: And the GI50 (CCRF-CEM)?
Answer: > 10 µM (inactive)

Question: And the GI50 (COLO 205)?
Answer: > 100 µM (inactive)

Question: And the GI50 (DU-145)?
Answer: > 100 µM (inactive)

Question: What about the GI50 (EKVX) of the same compound?
Answer: > 100 µM (inactive)

Question: And the GI50 (HCT-116)?
Answer: 5.65 µM (inactive)

Question: And the GI50 (HCT-15)?
Answer: > 100 µM

Question: What about the GI50 (HL-60) of the same compound?
Answer: > 100 µM (inactive)

Question: What about the GI50 (HOP-62) of the same compound?
Answer: 74.5 µM (inactive)

Question: And the GI50 (HOP-92)?
Answer: 93.8 µM (inactive)

Question: What about the GI50 (HT-29) of the same compound?
Answer: > 100 µM (inactive)

Question: What about the GI50 (Hs-578T) of the same compound?
Answer: 5.41 µM (inactive)

Question: And the GI50 (IGROV-1)?
Answer: > 100 µM (inactive)

Question: And the GI50 (K562)?
Answer: > 100 µM (inactive)

Question: And the GI50 (KM12)?
Answer: 30.1 µM (inactive)

Question: What about the GI50 (LOX IMVI) of the same compound?
Answer: > 100 µM (inactive)

Question: What about the GI50 (M14) of the same compound?
Answer: > 100 µM (inactive)

Question: And the GI50 (MCF7)?
Answer: > 100 µM (inactive)

Question: What about the GI50 (MDA-MB-435) of the same compound?
Answer: > 100 µM (inactive)

Question: And the GI50 (MDA-N)?
Answer: > 100 µM (inactive)

Question: And the GI50 (MOLT-4)?
Answer: > 100 µM (inactive)

Question: What about the GI50 (Malme-3M) of the same compound?
Answer: > 100 µM (inactive)

Question: What about the GI50 (NCI-H226) of the same compound?
Answer: > 100 µM (inactive)

Question: And the GI50 (NCI-H23)?
Answer: > 100 µM (inactive)

Question: And the GI50 (NCI-H460)?
Answer: > 100 µM (inactive)

Question: And the GI50 (NCI-H522)?
Answer: > 100 µM (inactive)

Question: What about the GI50 (NCI/ADR-RES) of the same compound?
Answer: > 100 µM (inactive)

Question: And the GI50 (OVCAR-3)?
Answer: > 100 µM (inactive)

Question: And the GI50 (OVCAR-4)?
Answer: 84.5 µM (inactive)

Question: And the GI50 (OVCAR-5)?
Answer: > 100 µM (inactive)

Question: What about the GI50 (OVCAR-8) of the same compound?
Answer: > 100 µM (inactive)

Question: And the GI50 (PC-3)?
Answer: > 100 µM (inactive)

Question: And the GI50 (RPMI-8226)?
Answer: > 100 µM (inactive)

Question: What about the GI50 (SF-268) of the same compound?
Answer: > 100 µM (inactive)

Question: And the GI50 (SF-295)?
Answer: 15.2 µM (inactive)

Question: What about the GI50 (SK-MEL-28) of the same compound?
Answer: > 100 µM (inactive)

Question: What about the GI50 (SK-MEL-2) of the same compound?
Answer: > 100 µM (inactive)

Question: What about the GI50 (SK-MEL-5) of the same compound?
Answer: 4.2 µM (inactive)

Question: And the GI50 (SK-OV-3)?
Answer: 27.7 µM (inactive)

Question: What about the GI50 (SN12C) of the same compound?
Answer: > 100 µM (inactive)

Question: What about the GI50 (SNB-19) of the same compound?
Answer: > 100 µM (inactive)

Question: And the GI50 (SNB-75)?
Answer: 3.34 µM (inactive)

Question: And the GI50 (SR)?
Answer: > 100 µM (inactive)

Question: And the GI50 (SW-620)?
Answer: > 100 µM (inactive)

Question: And the GI50 (T47D)?
Answer: > 100 µM (inactive)

Question: What about the GI50 (TK-10) of the same compound?
Answer: > 100 µM (inactive)

Question: What about the GI50 (U-251) of the same compound?
Answer: > 100 µM (inactive)

Question: And the GI50 (UACC-257)?
Answer: 19.3 µM (inactive)

Question: What about the GI50 (UACC-62) of the same compound?
Answer: > 100 µM (inactive)

Question: What about the GI50 (UO-31) of the same compound?
Answer: > 100 µM (inactive)

Question: Which results are given for Cc1c2c3cc(O)ccc3nc-2n(C)c2ccccc12?
Answer: GI50 (786-0): 0.53 µM (active); GI50 (A549): 0.938 µM (active); GI50 (ACHN): 0.479 µM (active); GI50 (BT-549): 1.92 µM (inactive); GI50 (CCRF-CEM): 0.743 µM (active); GI50 (DU-145): 3.08 µM (inactive); GI50 (EKVX): 2.58 µM (inactive); GI50 (HCC 2998): 2.77 µM (inactive); GI50 (HCT-116): 0.459 µM (active); GI50 (HCT-15): 1.81 µM; GI50 (HL-60): 2.34 µM (inactive); GI50 (HOP-62): 1.5 µM (inactive); GI50 (HOP-92): 1.93 µM (inactive); GI50 (HT-29): 1.1 µM (active); GI50 (Hs-578T): 2.9 µM (inactive); GI50 (IGROV-1): 2.17 µM (inactive); GI50 (K562): 0.818 µM (active); GI50 (KM12): 1.69 µM (inactive); GI50 (M14): 1.58 µM (inactive); GI50 (MCF7): 2.21 µM (inactive); GI50 (MDA-MB-435): 1.36 µM (inactive); GI50 (MDA-N): 2.07 µM (inactive); GI50 (MOLT-4): 0.399 µM (active); GI50 (Malme-3M): 1.48 µM (inactive); GI50 (NCI-H226): 2.86 µM (inactive); GI50 (NCI-H23): 2.24 µM (inactive); GI50 (NCI-H460): 0.434 µM (active); GI50 (NCI/ADR-RES): 0.957 µM (active); GI50 (OVCAR-3): 2.37 µM (inactive); GI50 (OVCAR-5): 3.3 µM (inactive); GI50 (OVCAR-8): 0.755 µM (active); GI50 (PC-3): 1.75 µM (inactive); GI50 (RPMI-8226): 2.34 µM (inactive); GI50 (RXF 393): 1.09 µM (active); GI50 (SF-268): 1.62 µM (inactive); GI50 (SF-295): 1.59 µM (inactive); GI50 (SF-539): 1.7 µM (inactive); GI50 (SK-MEL-28): 2.06 µM (inactive); GI50 (SK-MEL-5): 1.09 µM (active); GI50 (SK-OV-3): 1.46 µM (inactive); GI50 (SN12C): 0.875 µM (active); GI50 (SNB-19): 1.83 µM (inactive); GI50 (SNB-75): 2.45 µM (inactive); GI50 (SR): 0.782 µM (active); GI50 (SW-620): 0.497 µM (active); GI50 (T47D): 2.68 µM (inactive); GI50 (TK-10): 2.98 µM (inactive); GI50 (U-251): 0.838 µM (active); GI50 (UACC-257): 2.69 µM (inactive); GI50 (UACC-62): 1.39 µM (inactive); GI50 (UO-31): 0.857 µM (active)

Question: What does the source list for CCOC(=O)Cn1c(=O)c2cc(C)cc3c(Cl)nc4c(OC)c(OC)cc1c4c32?
Answer: GI50 (786-0): 29.7 µM (inactive); GI50 (A549): > 100 µM (inactive); GI50 (ACHN): > 100 µM (inactive); GI50 (BT-549): 56.6 µM (inactive); GI50 (CAKI-1): > 100 µM (inactive); GI50 (CCRF-CEM): > 100 µM (inactive); GI50 (COLO 205): > 100 µM (inactive); GI50 (DU-145): > 100 µM (inactive); GI50 (EKVX): > 100 µM (inactive); GI50 (HCC 2998): > 100 µM (inactive); GI50 (HCT-116): > 100 µM (inactive); GI50 (HCT-15): > 100 µM; GI50 (HL-60): > 100 µM (inactive); GI50 (HOP-62): > 100 µM (inactive); GI50 (HOP-92): 41.5 µM (inactive); GI50 (HT-29): > 100 µM (inactive); GI50 (Hs-578T): 31.8 µM (inactive); GI50 (IGROV-1): 71.8 µM (inactive); GI50 (K562): > 100 µM (inactive); GI50 (KM12): > 100 µM (inactive); GI50 (LOX IMVI): > 100 µM (inactive); GI50 (M14): > 100 µM (inactive); GI50 (MCF7): 72.8 µM (inactive); GI50 (MDA-MB-231): > 100 µM (inactive); GI50 (MDA-MB-435): > 100 µM (inactive); GI50 (MDA-N): > 100 µM (inactive); GI50 (MOLT-4): > 100 µM (inactive); GI50 (Malme-3M): 44.2 µM (inactive); GI50 (NCI-H226): > 100 µM (inactive); GI50 (NCI-H23): > 100 µM (inactive); GI50 (NCI-H460): > 100 µM (inactive); GI50 (NCI-H522): > 100 µM (inactive); GI50 (NCI/ADR-RES): > 100 µM (inactive); GI50 (OVCAR-3): > 100 µM (inactive); GI50 (OVCAR-4): > 100 µM (inactive); GI50 (OVCAR-5): > 100 µM (inactive); GI50 (OVCAR-8): > 100 µM (inactive); GI50 (PC-3): > 100 µM (inactive); GI50 (RPMI-8226): 36.5 µM (inactive); GI50 (RXF 393): 51.1 µM (inactive); GI50 (SF-268): 35.6 µM (inactive); GI50 (SF-295): > 100 µM (inactive); GI50 (SF-539): > 100 µM (inactive); GI50 (SK-MEL-28): > 100 µM (inactive); GI50 (SK-MEL-2): > 100 µM (inactive); GI50 (SK-MEL-5): > 100 µM (inactive); GI50 (SK-OV-3): > 100 µM (inactive); GI50 (SNB-19): > 100 µM (inactive); GI50 (SNB-75): 30.8 µM (inactive); GI50 (SR): 50 µM (inactive); GI50 (SW-620): > 100 µM (inactive); GI50 (TK-10): > 100 µM (inactive); GI50 (U-251): > 100 µM (inactive); GI50 (UACC-257): > 100 µM (inactive); GI50 (UACC-62): > 100 µM (inactive); GI50 (UO-31): > 100 µM (inactive)

— ChEMBL document CHEMBL1201862, “PubChem BioAssay data set” (2004)
